Reference: patent US5646132A, “2(1H)-quinolone compounds” (Adir et Compagnie, priority 1993, dated 1997)

Key:
AMPA receptor = experiment: Membrane binding, [3H]-AMPA, rat cortex homogenate; details: rat cortex membranes
Description: This is carried out using a rat cortex homogenate. The membrane pellet is prepared in a conventional manner in a sucrose buffer by differential centrifugations, and then frozen until used. After thawing, […] of membrane homogenate are taken up in a Tris-HCl (30 mM), CaCl2 (2.5 mM) buffer, pH 7.4, and incubated at 4° C. for 30 minutes in the presence of 25 μl of [^3 H]-AMPA or [^3 H]-kainate and 25 μl of the test product. Non-specific binding is determined in the presence of 10 μM quisqualate (AMPA binding) or 10 μM kainic acid (kainate binding). The membranes are then isolated by filtration. After drying of the filters, the radioactivity is measured by scintillation.

[1] = system: Kainate current (glutamate receptors; AMPA/kainate receptors); experiment: Currents induced by kainate in Xenopus oocytes expressing the glutamate receptors; format: cell-based, rat; details: kainate 100 μM, read-out: IC50, inhibition of kainate current
Description: 2/ Currents induced by EAA in Xenopus oocytes
Xenopus oocytes are injected with 50 ng of poly(A)^+ mRNA isolated from rat cerebral cortex, and incubated for 2 to 3 days at 18° C. to permit protein expression therein. The inward currents induced by EAA are measured in a medium of composition: NaCl (82.5 mM), KCl (2.5 mM), CaCl2 (1 mM), MgCl2 (1 mM), NaH2 PO4 (1 mM), HEPES (5 mM), pH 7.4, by the 2-electrode voltage-clamp method (potential=-60 mV). For measurement of the currents induced by NMDA and glycine, MgCl2 is absent from the medium and CaCl2 is brought to a concentration of 2 mM. The EAA agonists that induce the currents are used at the following concentrations: kainate: 100 μm; AMPA: 30 μM; glycine/NMDA: 3/30 μM. The test product is applied 30 seconds before and during the application of the agonist.

[2] = system: neurotoxic excitatory currents in the hippocampus; experiment: Neurotoxic excitatory currents induced in the hippocampus by stimulation of the glutamatergic pathways (Schaeffer's collaterals); details: read-out: IC50 with respect to neurotoxic excitatory currents induced in the hippocampus
Description: This inhibition is strong and constant since the same IC50 (2 μM) is found with respect to neurotoxic excitatory currents induced in the hippocampus by stimulation of the glutamatergic pathways (Schaeffer's collaterals).

[3] = Audiogenic convulsions test in DBA/2 mice; format: in vivo, mouse (DBA/2); details: mouse, in vivo, IP vs PO
Text: (§1) Furthermore, the compounds of the invention have an in vivo activity which is unique and exceptional for the products of this class. In fact, in the audiogenic convulsions test in DBA/2 mice carried out according to the methodology described by CROUCHER et al.

[4] = system: audiogenic (glutamate-dependent) convulsions in DBA/2 mice; experiment: Audiogenic convulsions test in DBA/2 mice; format: in vivo, mouse (DBA/2); details: for activity by the oral route, audiogenic convulsions: oral administration
Text: as §1

[5] = system: hippocampal pyramidal neurons (CA1); experiment: Transient global cerebral ischemia in Gerbil; format: in vivo
Description: 1) Transient global cerebral ischemia in Gerbil
Transient and complete arrest of cerebral blood flow which is observed in clinical situation during a cardiac infarct, gives rise to a delayed death of specific vulnerable neurons, especially in hippocampus, a crucial cerebral region for cognitive functions. This phenomenon can be experimentally reproduced after transient occlusion of common carotid arteries.
In Gerbil, a transient occlusion (5 minutes) of carotid arteries gives rise to a total loss of hippocampal pyramidal neurons (CA1). This death can be observed only 3 or 4 days after ischemia. Numerous studies have shown that it could be due essentially to an excessive release of glutamate during the post-ischemic reperfusion.
NBQX (30 mg/kg IP) protects 50% of neurons in case of treatment 30 minutes before then b.i.d. after ischemia until histological measurement 4 days later.

cortical infarct = experiment: Permanent focal ischemia in mice (MCA occlusion); format: in vivo
Description: 2) Permanent focal ischemia in mice
This ischemia can be perfectly reproduced in mice by electrocoagulation of MCA, giving rise to a well delimited cortical infarct 24 hours later. This infarct can be easily measured by histological examination.

[6] = 30 mg/kg IP, 30 minutes before then b.i.d. after ischemia, histology 4 days later
[7] = 30 mg/kg IP before then 3 hours after ischemia, significant decrease
[8] = 30 mg/kg, curative only (5 minutes, 1 hour and 2 hours after MCA occlusion)

Structure (SMILES): O=c1[nH]c2cc(Cl)c(Cl)cc2cc1P(=O)(O)O [Example 2, 6,7-Dichloro-2(1H)-quinolone-3-phosphonic acid]
- Ki (AMPA receptor): 900 nM
- IC50 [1]: 2000 nM
- IC50 [2]: 2000 nM
- bioavailability index (ID50 IP/ID50 PO) [3]: ~0.3
- ED50 ([4]; Mus musculus, IP administration, read-out: ID50, audiogenic convulsions): 18.7 mg/kg
- activity by the oral route, audiogenic convulsions [4]: also after oral administration
- protection of hippocampal neurons ([5]; 10 mg/kg IP, same conditions): 50%
- protection from neuronal death (in words) [5, 6]: protects completely from neuronal death
- change of infarct volume (cortical infarct; [7]): -26%
- change of infarct volume (cortical infarct; [8]): -23%

Structure (SMILES): NS(=O)(=O)c1cccc2c1c([N+](=O)[O-])cc1[nH]c(=O)c(=O)[nH]c12 [NBQX, 6-nitro-7-sulfamoylbenzo[f]quinoxaline-2,3-dione, reference compound]
- activity by the oral route, audiogenic convulsions [4]: do not have any activity by the oral route
- protection of neurons [5, 6]: 50%
- change of infarct volume (cortical infarct; [7]): -26%
- effect on infarct volume (in words) (cortical infarct; [8]): remains ineffective

Structure (SMILES): N#Cc1cc2[nH]c(=O)c(=O)[nH]c2cc1[N+](=O)[O-] [CNQX, 6-cyano-7-nitro-2,3-quinoxalinedione, reference compound]
- Ki (AMPA receptor): 70 nM
- activity by the oral route, audiogenic convulsions [4]: do not have any activity by the oral route
